These results are taken from article PMC11823594, “Durlobactam in combination with β-lactams to combat Mycobacterium abscessus” (Antimicrobial Agents and Chemotherapy, 2024).

Experiment [1] deals with Mycobacterium abscessus ATCC 19977 strain. The experiment in a line: Morphological changes by flow cytometry and confocal microscopy. The settings on record: clinically relevant unbound concentrations (fCss,ave), 24 h. The experiment is classed as cell-based. As to the method: Flow cytometry was employed to evaluate morphological changes in individual bacterial cells following PBP-lipo inactivation after 24 h of β-lactam treatment. The bacterial cells were stained using the BacLight kit L7012 (Thermo Fisher Scientific, Waltham, MA), containing SYTO 9 and propidium iodide (PI). Analysis was performed using a CytoFLEX flow cytometer (Beckman Coulter, CA), with data processed using CytExpert software.
Bacterial morphological changes resulting from PBP-lipo inactivation were investigated using an ImageXpress Micro Confocal Microscope (Molecular Devices, CA). The staining procedures applied to the samples mirrored those used for flow cytometry. Stained bacterial cells were placed in optically clear flat-bottom 96-well plates, and observations were conducted at 60× magnification. Cell length measurements were obtained through automated image analysis using MetaXpress 6 software.

The next experiment concerns the target T1, PBP-lipo (Mycobacteroides abscessus, UniProt B1MDC3).
T1 construct: made in house; host or cells: Escherichia coli BL21 (DE3)
The experiment in a line: Steady-state kinetics with nitrocefin (Ki,app). In kind it is biochemical. The settings on record: for Ki: nitrocefin at 5 × Km, read-out: Ki,app PBP-lipo (converted); for Ratio of fCss,avg to Ki,app, PBP-lipo: in parentheses in Table 3. As to the method: Steady-state kinetic studies were conducted using purified LDTs and PBPs (LDT1-5, PBP B, PBP-lipo, and DDC) as previously described ([20]). The assays were performed using a BioTek Synergy2 multimode reader in conjunction with Gen5 analysis software. Increasing concentrations of NCF (Δε482 = 17,400 M^⁻¹ cm^⁻¹) were used, while fixed concentrations of the LDTs and PBPs were monitored for changes in absorbance at 482 nm over a time period of 0 to 10 min. To determine reaction velocities, a 0.25 cm path length was employed. The steady-state kinetic parameters (Vmax, kcat, and Km) were obtained by fitting the data to the Henri-Michaelis-Menten equation using a nonlinear least-squares fit in Origin 8.1 software (OriginLab, Northampton, MA). The reaction rate (v) at a given substrate concentration ([S]) was calculated according to the following equations: […]
To determine the apparent inhibition constants (Ki,app) for β-lactams and BLIs, the following experimental condition was employed: NCF as a substrate at a concentration of 5 × Km, LDT/ PBP enzymes with fixed concentration, and β-lactams and BLIs with various concentrations. Changes in absorbance at 482 nm were measured over a period of 0–30 min for each concentration of β-lactams and BLIs. Data were linearized using a Dixon plot, plotting the inverse changes in absorbance (1/ΔA) against the concentrations of β-lactams and BLIs. The observed Ki,app was determined directly from the Dixon plot, and these values were corrected for substrate concentration and affinity for the LDT using the following equation:
Ki,app=observed Ki,app/1+[NCF]/Km NCF

For another experiment, the target named is DDC (Mycobacteroides abscessus, UniProt B1MDJ1). The experiment in a line: Differential scanning fluorimetry thermal shift assay. In kind it is binding. The settings on record: 2 h; read-out: ΔTm DDC (Tm = 35.5°C). As to the method:
(§1) Each purified protein (2–4 µM) was incubated with or without β-lactams or BLIs at a molar ratio of 1:50 at room temperature for 2 h. Following incubation, SYPRO Orange dye (10× concentration; Fisher Scientific) was added. The samples were then brought to a final volume of 30 µL with PBS buffer and subjected to thermal cycling in a qPCR machine (Bio-Rad), with the temperature increasing from 25°C to 95°C at a rate of 1°C/min. Fluorescence changes were monitored with an excitation wavelength of 492 nm. The experiments were conducted at least in duplicate, and the melting temperature (Tm) was determined for each sample. The Tm values were then compared to those of the protein in the absence of β-lactams or BLIs to ascertain the change in melting temperature (ΔTm).

Another experiment addresses PBP B (Mycobacterium abscessus, UniProt B1MP31). The description is as above. The experiment is classed as binding. The note with it: 2 h; read-out: ΔTm PBPB (Tm = 31.6°C). As to the method:
as §1

Another experiment concerns the target LDT4 (Mycobacterium abscessus, UniProt B1MKW1). The experiment in a line: Mass spectrometry of covalent adduct formation. In kind it is binding. The settings on record: protein:drug 1:20, 2 h; mass accuracy ±5 Da; (−) = no change. As to the method:
Truncated sequences of LDT1-5, DDC, PBP B, and PBP-lipo (Δ1–41) were generated by Celtek Biosciences and cloned into the pET28(a) + vector with a tobacco etch virus (TEV) protease cleavage site before the start codon. Clones were transformed into Escherichia coli BL21 (DE3) and grown to an OD600 of 0.6–0.8. Protein expression was induced with 0.25 mM isopropyl β-d-1-thiogalactopyranoside (IPTG) and incubated for 18 h at 18°C. Cell pellets were collected and stored at −20°C overnight, then resuspended in a buffer containing 50 mM Tris (pH 8.0), 400 mM sodium chloride, and 1 mM Tris (2-carboxyethyl) phosphine hydrochloride (TCEP), followed by sonication and centrifugation. The supernatant was purified using a His Prep FF 16/10 column (GE Healthcare) and eluted with 500 mM imidazole. Eluted protein was dialyzed overnight at 4°C in a buffer with 50 mM Tris (pH 8.0), 150 mM sodium chloride, and 0.5 mM TCEP in the presence of His-tagged TEV protease. To remove the His tag, the mixture was passed over the His Prep FF 16/10 column again.
The purified proteins listed above were incubated at room temperature with β-lactams or BLIs at a molar ratio of 1:20 for 2 h. The reactions were then quenched with acetonitrile and diluted to 1 mL with 0.1% formic acid in water. Samples were analyzed using a quadrupole time-of-flight (Q-TOF) Waters Synapt-G2-Si electrospray ionization mass spectrometer (ESI-MS) and a Waters Acquity H class ultra-performance liquid chromatography (UPLC) system, equipped with a BEH C18 1.7 µm column (2.1 × 50 mm). The MS was tuned with the following settings: capillary voltage set at 3 kV, sampling cone at 35 V, source offset at 35, source temperature of 100°C, desolvation temperature of 500°C, cone gas flow rate at 100 L/h, desolvation gas flow rate at 800 L/h, and nebulizer set at 6.0. The mobile phases consisted of 0.1% formic acid in water and 0.1% formic acid in 100% acetonitrile, with gradient elution from 10% to 90% of […] over 11 min. The system’s mass accuracy was ±5 Da.

Chain of LDT4 (B1MKW1 entry or part of it): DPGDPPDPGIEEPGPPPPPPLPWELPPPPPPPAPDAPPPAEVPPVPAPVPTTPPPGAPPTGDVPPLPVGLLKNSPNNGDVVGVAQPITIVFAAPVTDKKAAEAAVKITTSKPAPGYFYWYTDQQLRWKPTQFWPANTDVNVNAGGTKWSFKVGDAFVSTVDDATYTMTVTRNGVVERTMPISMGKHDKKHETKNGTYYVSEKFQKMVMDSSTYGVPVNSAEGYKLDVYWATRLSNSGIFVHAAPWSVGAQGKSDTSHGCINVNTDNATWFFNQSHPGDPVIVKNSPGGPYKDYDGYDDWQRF
Chain of DDC (B1MDJ1 entry or part of it): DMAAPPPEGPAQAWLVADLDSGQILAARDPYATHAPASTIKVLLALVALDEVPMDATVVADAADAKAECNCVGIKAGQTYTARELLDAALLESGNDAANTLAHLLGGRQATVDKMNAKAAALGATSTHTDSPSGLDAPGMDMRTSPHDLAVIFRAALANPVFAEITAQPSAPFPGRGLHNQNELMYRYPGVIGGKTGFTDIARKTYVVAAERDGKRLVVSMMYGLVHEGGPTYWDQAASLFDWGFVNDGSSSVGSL
Chain of PBP B (B1MP31 entry or part of it): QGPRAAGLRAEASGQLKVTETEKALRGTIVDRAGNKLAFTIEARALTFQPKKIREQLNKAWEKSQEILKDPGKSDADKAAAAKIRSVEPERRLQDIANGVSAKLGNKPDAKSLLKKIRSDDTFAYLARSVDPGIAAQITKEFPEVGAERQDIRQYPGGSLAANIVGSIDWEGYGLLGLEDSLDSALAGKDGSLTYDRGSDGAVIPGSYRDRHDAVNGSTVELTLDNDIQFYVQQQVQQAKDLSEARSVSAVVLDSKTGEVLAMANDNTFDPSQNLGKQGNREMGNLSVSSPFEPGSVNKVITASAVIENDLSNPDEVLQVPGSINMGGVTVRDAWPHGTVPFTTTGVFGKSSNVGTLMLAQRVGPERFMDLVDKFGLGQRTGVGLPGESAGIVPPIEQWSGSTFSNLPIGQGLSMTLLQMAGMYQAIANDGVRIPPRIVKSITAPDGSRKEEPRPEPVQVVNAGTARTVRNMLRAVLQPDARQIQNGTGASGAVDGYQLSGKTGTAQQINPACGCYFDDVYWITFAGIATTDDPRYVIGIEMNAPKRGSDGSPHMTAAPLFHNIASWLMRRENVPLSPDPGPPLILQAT
T1 sequence (B1MDC3 entry or part of it): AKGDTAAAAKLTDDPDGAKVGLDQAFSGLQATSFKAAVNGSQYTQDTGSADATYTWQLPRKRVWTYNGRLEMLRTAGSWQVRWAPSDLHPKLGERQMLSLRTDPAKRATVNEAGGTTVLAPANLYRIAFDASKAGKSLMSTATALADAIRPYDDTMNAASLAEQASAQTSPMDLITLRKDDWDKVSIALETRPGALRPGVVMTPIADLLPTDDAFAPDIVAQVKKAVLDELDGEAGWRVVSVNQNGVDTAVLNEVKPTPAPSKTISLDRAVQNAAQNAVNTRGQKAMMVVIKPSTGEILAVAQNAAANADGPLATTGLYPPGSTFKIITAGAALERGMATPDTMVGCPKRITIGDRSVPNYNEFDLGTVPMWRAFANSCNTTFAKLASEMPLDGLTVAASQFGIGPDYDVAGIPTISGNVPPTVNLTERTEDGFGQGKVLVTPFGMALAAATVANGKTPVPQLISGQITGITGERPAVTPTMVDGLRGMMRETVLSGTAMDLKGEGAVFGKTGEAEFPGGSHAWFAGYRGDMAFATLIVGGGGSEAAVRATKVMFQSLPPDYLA

Take `CC1(C)S[C@@H]2[C@H](NC(=O)[C@H](N)c3ccc(O)cc3)C(=O)N2[C@H]1C(=O)O` [Amoxicillin, amoxicillin]: the “Morphological change of Mab cells” value in experiment [1] is “does not induce any morphological changes”. Also, the Ki on PBP-lipo is 0.274 µM.

As a reminder, the ΔTm is the change in melting temperature against a reference sample. Take `NC(=O)[C@@H]1CC[C@@H]2CN1C(=O)N2OS(=O)(=O)O` [Avibactam, avibactam]: on DDC, the ΔTm stood at 4.2 °C. At PBP B, the ΔTm is -0.2 °C. The “Morphological change of Mab cells” value in experiment [1] is listed as “did not induce noticeable morphological changes”. Moreover, at PBP-lipo, the “Ratio of fCss,avg to Ki,app, PBP-lipo” value stood at 1 and the Ki is 18.9 µM.

For the compound `CO/N=C(\C(=O)N[C@@H]1C(=O)N2C(C(=O)O)=C(COC(N)=O)CS[C@H]12)c1ccco1` [Cefuroxime, cefuroxime], the “Morphological change of Mab cells” value in experiment [1] is listed as “did not induce noticeable morphological changes”. In addition, the “Observed MW (+ change in mw), LDT4 (32,567)” value (shortened to “Observed MW (+ change in mw)”) on LDT4 is listed as 32,567 (−) Da. In addition, on PBP-lipo, the “Ratio of fCss,avg to Ki,app, PBP-lipo” value was 0.5 and the Ki was 51.8 µM.

Turning to `CC1=C[C@@H]2CN(C(=O)N2OS(=O)(=O)O)[C@@H]1C(N)=O` [Durlobactam, durlobactam], the ΔTm on DDC turned out to be 0.4 °C. Further, at PBP B, the ΔTm was -0.4 °C. Moreover, the “Morphological change of Mab cells” value in experiment [1] is recorded as “filamentous shapes with an elongated cell length”. Besides, the “Observed MW (+ change in mw)” value on LDT4 was 32,841 (+276) Da. Further, on PBP-lipo, the “Ratio of fCss,avg to Ki,app, PBP-lipo” value stood at 133 and the Ki was 0.361 µM.

With `C[C@@H](O)[C@H]1C(=O)N2C(C(=O)O)=C(SCCN=CN)C[C@H]12` [Imipenem, imipenem], the “Morphological change of Mab cells” value in experiment [1] was “filamentous shapes with an elongated cell length”. For the same compound, on PBP-lipo, the “Ratio of fCss,avg to Ki,app, PBP-lipo” value stood at 22 and the Ki was 2 µM.

Regarding `C[C@@H](O)[C@H]1C(=O)N2C(C(=O)O)=C(S[C@H]3CC[S@@+]([O-])C3)S[C@H]12` [Sulopenem, sulopenem], the ΔTm on DDC turned out to be 10.4 °C. For the same compound, at PBP B, the ΔTm came to 1 °C. Further, the “Morphological change of Mab cells” value in experiment [1] is recorded as “filamentous shapes with an elongated cell length”. Besides, the “Observed MW (+ change in mw)” value at LDT4 is on record as 32,652 (+86) Da. Also, on PBP-lipo, the “Ratio of fCss,avg to Ki,app, PBP-lipo” value was 25 and the Ki is 0.229 µM.

In the case of `C[C@@H](O)[C@H]1C(=O)N2C(C(=O)O)=C(SC3CN(C4=NCCS4)C3)[C@H](C)[C@H]12` [Tebipenem, tebipenem], the “Observed MW (+ change in mw)” value at LDT4 is on record as 32,951 (+384) Da. For the same compound, on PBP-lipo, the “Ratio of fCss,avg to Ki,app, PBP-lipo” value was found to be 0.05 and the Ki was 88.7 µM.
